Publication PMC11100219, “Dual-function antimicrobial-antibiofilm peptide hybrid to tackle biofilm-forming Staphylococcus epidermidis” (Annals of Clinical Microbiology and Antimicrobials, 2024)
Residues, ends and D or L forms follow the SMILES beside them.

Experiments:
[1] = test system: human red blood cells (hRBCs); assay: Hemolysis activity (hemoglobin release); assay type: cell-based; conditions: 1 h, 37°C
Description: The effect of peptides on human red blood cells (hRBCs) was assessed by observing the release of hemoglobin upon treated with peptide. Briefly, the hRBCs were obtained from healthy volunteers and subsequently diluted in 10 mM PBS to a concentration of 2% hRBCs. An equal volume of 2% hRBCs and peptide at concentration of 0.98–250 µg/mL in 10 mM PBS mixtures were incubated for 1 h at 37°C. Following incubation, the suspension was centrifuged, then supernatants were collected and transferred to 96-well microplates for measurement of absorbance at OD of 405 nm (OD405). This study was performed in accordance with the Thammasat University Ethics Committee (COA No. 066/2562). Written informed consent was obtained from all volunteers.

[2] = test system: S. epidermidis (ATCC 35984) biofilm; assay: Biofilm-formation inhibitory activity, crystal violet staining; assay type: cell-based, Staphylococcus epidermidis; conditions: CV staining, TSB, 10^6 CFU/mL, 24 h, 37°C, 0.98-250 µg/mL
Description: The biofilm inhibitory activity of peptide derivatives was assessed by modified crystal violet (CV) staining. Briefly, the pellet of S. epidermidis (ATCC 35984) was collected through centrifugation of bacterial suspensions grown overnight at 2,500 × g for 5 min. Subsequently, the pellet was resuspended and diluted with TSB to a final concentration of 10^6 CFU/mL. Then, 50 µL of these diluted suspensions was transferred to 96-well microplates containing same volume of peptide derivatives in 10 mM phosphate buffer saline (PBS; Caisson Labs, USA), with concentrations ranging from 0.98 to 250 µg/mL. Vancomycin was used as positive control while TSB medium without bacteria was used as negative control. After 24 h of incubation and reaching static growth at 37°C, culture media as well as planktonic cells were removed, then the biofilm in each well was washed thrice with 0.85% NaCl. For CV staining, biofilms were fixed with 95% ethanol and stained with a 0.1% (v/v) CV solution for 15 min. After removal of excess dye, each well was washed thrice with 0.85% NaCl and resuspended in 95% ethanol to dissolve bound dye. Absorbance was determined at 570 nm using a Multiskan SkyHigh microplate reader (Thermo Scientific™, Singapore). All experiments were done in six technical replicates and repeated independently three times. Minimum biofilm inhibitory concentrations at 50% and 90% (MBIC50 and MBIC90) refers to concentrations of the peptide at which the inhibition of biofilm was at least 50% and 90%, respectively.

[3] = test system: all gram-negative bacterial strains; assay: Mean MIC and therapeutic index, gram-negative strains; assay type: cell-based; conditions: four gram-negative strains
Description: The minimal inhibitory concentrations (MICs) of peptide derivatives versus planktonic bacteria were assessed using a modification of the broth microdilution assay previously described in the National Committee for Clinical Laboratory Standards (NCCLS). In brief, bacteria at mid-logarithmic growth were collected by centrifugation at 2,500 × g for 5 min. Subsequently, the pellet was resuspended and adjusted in Mueller-Hinton Broth (MHB; BD Bacto™, USA) to an OD620 of 0.05. Fifty µL of bacterial suspensions was transferred to 96-well microplates. Later, 50 µL of peptide derivatives at 0.98–250 µg/mL in 10 mM PBS, was added to wells and incubated for 24 h at 37°C with continuous shaking at 220 rpm. […] The experiments were done in three technical replicates and repeated independently.
The therapeutic index (TI) is widely used for evaluating a peptide’s efficacy and safety. It is the ratio between the minimum hemolytic concentration (MHC, the concentration causing 10% hemolysis) and the geometric mean (GM) value of the MIC [15]. […] While, both lysine-substituted peptides (BiF2_7K and BiF2_5K7K) had higher TIs against all tested biofilm-forming bacteria than did the two parent peptides, and the TI of BiF2_5K7K was higher than that of BiF2_7K.

[4] = test system: planktonic S. epidermidis; assay: Time-killing analysis; assay type: cell-based, Staphylococcus epidermidis; conditions: for number of S. epidermidis: within 4 h, MHB, 37°C
Description: The time-dependent bactericidal activity of BiF2_5K7K against planktonic S. epidermidis was determined as previously described. In brief, mid-log phase bacteria in MHB were exposed to BiF2_5K7K at MIC and/or MBC for 24 h at 37°C. The bacterial suspensions were obtained at specific time point (0, 2, 4, 6, 8 and 24 h), and 10-fold serially diluted with PBS and then plated on TSA. Untreated bacterial suspension was served as a control. After incubation, the number of CFUs was determined by colony count.

[5] = test system: S. epidermidis biofilm matrix; assay: Confocal laser scanning microscopy of biofilm formation (AAA model); assay type: cell-based, Staphylococcus epidermidis; conditions: at MBIC50 (7.81 µg/mL), 24 h; p-value < 0.001
Description: An Amsterdam active attachment (AAA) model was used to assess the effectiveness of BiF2_5K7K to inhibit biofilm formation as previously described. In a 24-well microplate, various concentrations of BiF2_5K7K were incubated overnight with 10^7 CFU/mL of S. epidermidis. The plate was then covered with a sanitary stainless-steel lid containing double-glass coverslips. Following 24 h of incubation at 37°C, the biofilms were washed, and then […] green Alexa-ConA (Sigma-Aldrich, USA) was applied for 30 min to stain the biofilms. After staining, biofilms were fixed for 3 h with 2.5% glutaraldehyde. Biofilm images were acquired using a confocal laser scanning microscope (CLSM; Carl-Zeiss/LSM800, Zeiss, Germany). The fluorescence intensity of each test was analysed using ZEN 2.1 (blue edition) software.

[6] = test system: S. epidermidis biofilm cells; assay: Biofilm cell viability, MTT assay; assay type: cell-based, Staphylococcus epidermidis; conditions: 24 h
Description: The biofilm cell viability after treated with hybrid peptide BiF2_5K7K was examined by 3-(4,5-Dimethylthiazol-2-yl)-2,5-Diphenyltetrazolium bromide or MTT colorimetric assays. Bacterial suspensions (10^6 CFU/mL in TSB) and peptide at concentration ranging from 0.98 to 250 µg/mL in 10 mM PBS were incubated in 96-well microtiter plates at 37°C for 24 h. After incubation, supernatant was discarded, followed by the addition of 0.4 mg/mL MTT (Sigma-Aldrich, USA) in 10 mM PBS to each well and incubated for 3 h at 37°C. Subsequently, supernatant was removed and dimethyl sulfoxide (DMSO; Fisher BioReagents™, UK) was added to dissolve the formed formazan crystals in wells. At a wavelength of 570 nm, the optical densities of the solutions were then determined by microplate reader.

Question: CC[C@H](C)[C@H](NC(=O)[C@H](CCCCN)NC(=O)[C@H](CCCCN)NC(=O)[C@@H](NC(=O)[C@H](CC(C)C)NC(=O)[C@@H](N)Cc1ccccc1)C(C)C)C(=O)N[C@@H](CCCCN)C(=O)N[C@@H](CCCCN)C(=O)N[C@H](C(=O)N[C@@H](CC(C)C)C(=O)N[C@@H](CCCNC(=N)N)C(=O)N[C@@H](CCCNC(=N)N)C(N)=O)[C@@H](C)CC [BiF2_5K7K] (H-FLVKKIKKILRR-NH2; N-terminus assumed) was tested. Which hemolytic activity ([1]; at 250 µg/mL (maximum concentration tested)) did it give?
Answer: Its hemolytic activity is “less than 10%”.

Question: What about the “MHC, minimum hemolytic concentration” value ([1]; peptide concentration causing 10% hemolysis of hRBCs, 2% hRBCs in 10 mM PBS, OD405) of the same molecule?
Answer: Its value is over 250 µg/mL.

Question: And the MBIC50 ([2]; minimum concentration inhibiting biofilm formation more than 50%)?
Answer: The MBIC50 was 7.81 µg/mL.

Question: What about the MBIC90 ([2]; minimum concentration inhibiting biofilm formation more than 90%) of the same molecule?
Answer: The MBIC90 was 31.25 µg/mL.

Question: And the “GM-, geometric mean of MIC values from all gram-negative bacterial strains” value [3]?
Answer: The value was 93.75 µg/mL.

Question: What about the “number of S. epidermidis” value ([4]; peptide at MBC) of the same molecule?
Answer: Its value is “approximately 10^3 CFU/mL”.

Question: What about the regrowth ([4]; peptide at MIC, after 8 h) of the same molecule?
Answer: Its regrowth is “regrowth was observed”.

Question: And the “number of S. epidermidis” value ([4]; peptide at MIC)?
Answer: The value was “approximately 10^3 CFU/mL”.

Question: And the “fluorescence intensity of Alexa Fluor 488 stained biofilm vs untreated control” value [5]?
Answer: The value was “significantly lower”.

Question: What about the “viability of biofilm cells” value ([6]; at MIC (15.63 µg/mL)) of the same molecule?
Answer: Its value is “remained viable”.

Question: And the “viability of biofilm cells” value ([6]; at higher concentrations (>15.63 µg/mL))?
Answer: The value was “no growth of biofilm cells”.
